For test [1], the system named is currently used micro-organisms. The class given is biochemical.
For test [2], the system named is currently used micro-organisms. In kind it is biochemical. The source holds these as a separate data set.
Test [3] concerns V. cholerae-derived enzyme. The class given is biochemical.
Test [4] deals with B. thuringiensis-derived enzyme. In kind it is biochemical.
Test [5] concerns enzymes derived from E. herbicola. In kind it is biochemical.
Test [6] deals with enzymes derived from B. globigii. The class given is biochemical.
In test [7] the test system is enzymes derived from V. cholerae. In kind it is biochemical.
Test [8] deals with enzymes derived from C. botulinum. In kind it is biochemical.
A further test addresses T1, lysostaphin (Staphylococcus simulans, UniProt P10547).
T1 construct: purchased Sigma
The class given is biochemical.

Test [9] has as its system P. aeruginosa-derived enzyme. The class given is biochemical, Pseudomonas aeruginosa.
In test [10] the test system is (virulent) B. anthracis-derived enzyme. In kind it is biochemical, Bacillus anthracis.
The test system is the same in test [11]. In kind it is biochemical, Bacillus anthracis. This is another data set of the same source.
Another test concerns B. thuringiensis. In kind it is biochemical.
Another test has as its system B. cereus. In kind it is biochemical.
The subject of test [12] is Collagenase Vibrio/Dispase. In kind it is biochemical, Vibrio sp.
Test [13] deals with Anthrax Lethal Factor (LF) (Bacillus anthracis, UniProt P15917). In kind it is biochemical.
For the next test, the system named is Collagenase Clostridium. In kind it is biochemical, Clostridium sp.
For the next test, the target named is T2, Thermolysin (Bacillus thermoproteolyticus, UniProt P00800).
T2 construct: purchased Sigma
T2 sequence (P00800 233-548): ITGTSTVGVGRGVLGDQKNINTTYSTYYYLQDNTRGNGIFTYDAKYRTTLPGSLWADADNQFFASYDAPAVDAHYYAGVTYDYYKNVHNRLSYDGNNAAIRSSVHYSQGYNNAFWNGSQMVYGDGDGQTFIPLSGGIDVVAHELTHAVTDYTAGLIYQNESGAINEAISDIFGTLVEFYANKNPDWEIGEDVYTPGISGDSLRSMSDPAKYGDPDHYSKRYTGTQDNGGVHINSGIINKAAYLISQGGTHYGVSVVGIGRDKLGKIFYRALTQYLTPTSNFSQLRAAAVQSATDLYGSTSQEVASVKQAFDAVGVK
The class given is biochemical.

The subject of a further test is B. cereus cells. In kind it is cell-based. As to conditions: for Location of fluorescent BikKam1 fragments (fluorescence microscopy): 0.01 M BikKam1.

“Also recorded” adds a separate entry of the source. Read-outs that look alike come from different tables or passages of the source. *: point of attachment. FITC = O=C1OC2(c3ccc(O)cc3Oc3cc(O)ccc32)c2ccc(NC(=S)*)cc21; Ahx = NCCCCCC(=O)O

T1 sequence (P10547 248-493, species assumed): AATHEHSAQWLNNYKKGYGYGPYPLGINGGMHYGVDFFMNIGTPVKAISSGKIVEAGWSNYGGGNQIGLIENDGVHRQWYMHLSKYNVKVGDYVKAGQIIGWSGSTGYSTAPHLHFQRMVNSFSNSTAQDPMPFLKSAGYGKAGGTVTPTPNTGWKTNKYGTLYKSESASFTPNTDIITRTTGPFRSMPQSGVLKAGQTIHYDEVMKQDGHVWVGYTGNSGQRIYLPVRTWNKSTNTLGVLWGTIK
Anthrax Lethal Factor (LF), sequence (P15917 34-809 limits assumed): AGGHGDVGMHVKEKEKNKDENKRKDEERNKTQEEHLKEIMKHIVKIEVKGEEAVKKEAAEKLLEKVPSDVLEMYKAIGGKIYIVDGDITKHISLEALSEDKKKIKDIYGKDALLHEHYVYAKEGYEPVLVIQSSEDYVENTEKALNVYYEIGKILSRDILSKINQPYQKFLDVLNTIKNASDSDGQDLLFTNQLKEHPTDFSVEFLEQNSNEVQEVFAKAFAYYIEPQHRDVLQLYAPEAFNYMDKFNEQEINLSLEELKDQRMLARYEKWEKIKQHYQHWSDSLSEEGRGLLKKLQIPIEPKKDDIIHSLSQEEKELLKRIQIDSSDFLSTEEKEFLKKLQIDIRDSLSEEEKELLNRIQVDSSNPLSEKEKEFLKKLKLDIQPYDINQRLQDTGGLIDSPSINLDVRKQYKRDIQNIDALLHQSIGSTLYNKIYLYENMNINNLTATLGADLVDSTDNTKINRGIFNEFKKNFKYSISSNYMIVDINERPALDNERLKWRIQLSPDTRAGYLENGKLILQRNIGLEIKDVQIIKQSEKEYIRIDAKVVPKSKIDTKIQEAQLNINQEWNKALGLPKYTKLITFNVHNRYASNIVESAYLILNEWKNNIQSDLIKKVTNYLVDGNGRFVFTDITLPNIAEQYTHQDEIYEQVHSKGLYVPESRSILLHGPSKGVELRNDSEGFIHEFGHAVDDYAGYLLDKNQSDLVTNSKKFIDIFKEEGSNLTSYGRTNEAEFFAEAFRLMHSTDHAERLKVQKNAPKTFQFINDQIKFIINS

On to FITC-Ahx-Pro-Hyp-Lys-DABCYL [BikKam9], for which the “Enzyme activity on substrate with the currently used micro-organisms” value (“Enzyme activity on substrate” for short) in test [1] and in test [2] was “No significant enzyme activity” each time.

For FITC-Ahx-Leu-Leu-Lys-DABCYL [BikKam3], the “Fluorescent signal of FRET: cleavage of substrate by V. cholerae-derived enzyme” value in test [3] is on record as “specifically cleaved”. Further, the “Fluorescent signal of FRET: cleavage of substrate by B. thuringiensis-derived enzyme” value in [4] was “specifically cleaved”. Also, in [5], the “Fluorescent signal of FRET: cleavage of substrate by E. herbicola” value is recorded as “show activity”. Besides, the “Fluorescent signal of FRET: cleavage of substrate by B. globigii” value in [6] was “show activity”. Also, the “Fluorescent signal of FRET: cleavage of substrate by V. cholerae” value in test [7] is recorded as “show activity”. Also, the “Fluorescent signal of FRET: cleavage of substrate by C. botulinum” value in test [8] is listed as “show activity”.

Take “FITC-Ahx-Gly-Gly-Gly-Gly-Gly-DABCYL [BikKam20]”: the “Cleavage of substrate by lysostaphin” value in the test with lysostaphin was “specifically cleaved”. In test [9], the “Activity for P. aeruginosa compared to the other BikKam20-24 substrates” value is reported as “increase in cleavage” and the “Fluorescent signal of FRET: cleavage of substrate by P. aeruginosa-derived enzyme” value is “specifically cleaved”.

Turning to FITC-Ahx-Gly-DABCYL [BikKam24], the “Cleavage of substrate by lysostaphin” value on lysostaphin is “No significant enzyme activity”. For the same substance, in test [9], the “Fluorescent signal of FRET: cleavage of substrate by P. aeruginosa-derived enzyme” value was “no P. aeruginosa activity”. For the same substance, the “Enzyme activity on substrate” value in [2] is reported as “No significant enzyme activity”.

FITC-Ahx-Gly-DLeu-Lys-DABCYL [BikKam7]: the “Fluorescent signal of FRET: cleavage of substrate by B. anthracis-derived enzyme” value in test [10] and in test [11] was “specifically cleaved” throughout. The “Fluorescent signal of FRET: cleavage of substrate by B. thuringiensis” value with B. thuringiensis is recorded as “weak signal”.

In the case of FITC-Ahx-DLeu-DLeu-Lys-DABCYL [BikKam4], in [4], the “Fluorescent signal of FRET: cleavage of substrate by B. thuringiensis-derived enzyme” value was “specifically cleaved”. The “Fluorescent signal of FRET: cleavage of substrate by B. anthracis-derived enzyme” value in [10] and in [11] was “specifically cleaved” throughout.

For the substance “FITC-Ahx-Leu-DLeu-Leu-Lys-DABCYL [BikKam5]”, the “Fluorescent signal of FRET: cleavage of substrate by B. thuringiensis-derived enzyme” value in test [4] is recorded as “Some weak activity”. The “Fluorescent signal of FRET: cleavage of substrate by B. anthracis-derived enzyme” value in test [10] and in test [11] was “specifically cleaved” each time. Further, the “Fluorescent signal of FRET: cleavage of substrate by V. cholerae” value in test [7] is given as “Some cleavage”.

With FITC-Ahx-Gly-Gly-DABCYL [BikKam23], on lysostaphin, the “Cleavage of substrate by lysostaphin” value is “not cleaved; also recorded: does not interact”. Besides, in test [9], the “Activity for P. aeruginosa compared to the other BikKam20-24 substrates” value is “lower than BikKam20-BikKam22; also recorded: significant decrease in activity; also recorded: lower activity” and the “Fluorescent signal of FRET: cleavage of substrate by P. aeruginosa-derived enzyme” value is “specifically cleaved”.

As to FITC-Ahx-Gly-Gly-Gly-DABCYL [BikKam22], the “Cleavage of substrate by lysostaphin” value on lysostaphin was “somewhat cleavage”. Besides, in [9], the “Activity for P. aeruginosa compared to the other BikKam20-24 substrates” value is reported as “slight increase in activity; also recorded: increase in cleavage” and the “Fluorescent signal of FRET: cleavage of substrate by P. aeruginosa-derived enzyme” value is “specifically cleaved”.

Turning to FITC-Ahx-DLeu-Leu-Lys-DABCYL [BikKam2], the “Fluorescent signal of FRET: cleavage of substrate by B. thuringiensis-derived enzyme” value in test [4] is reported as “specifically cleaved”. The “Fluorescent signal of FRET: cleavage of substrate by B. anthracis-derived enzyme” value in test [10] and in [11] was “specifically cleaved” in each case. Also, the “Fluorescent signal of FRET: cleavage of substrate by B. cereus” value in the test on B. cereus is reported as “weak signal”. The “Fluorescent signal of FRET: cleavage of substrate by B. thuringiensis” value in the test with B. thuringiensis was “weak signal”.

FITC-Ahx-Gly-DAla-Lys-DABCYL [BikKam8]: the “Enzyme activity on substrate” value in test [1] and in test [2] was “No significant enzyme activity” in each case.

For “FITC-Ahx-Gly-Gly-Gly-Gly-DABCYL ({FITC-Ahx}-GGGG-{DABCYL}) [BikKam21]”, the “Cleavage of substrate by lysostaphin” value with lysostaphin is recorded as “specifically cleaved”. For the same substance, the “Activity for P. aeruginosa compared to the other BikKam20-24 substrates” value in [9] is recorded as “slight increase in activity”.

As to FITC-Ahx-Leu-DVal-Lys-DABCYL [BikKam6], the “Background with bacteria other than (virulent) B. anthracis” value in test [1] is given as “hardly revealed any background”. Further, in test [1] (at 60 min), the “Background with other bacteria than (virulent) B. anthracis” value was “Some weak background”.

Turning to FITC-Ahx-Leu-DLeu-Lys-DABCYL [BikKam1], in [4], the “Fluorescent signal of FRET: cleavage of substrate by B. thuringiensis-derived enzyme” value is “Some weak activity”. Further, the “FRET signal with purified collagenase (Vibrio sp)” value in [12] was “No signal”. Further, the “FRET signal with purified Lethal Factor” value in test [13] is “No signal”. Further, the “Fluorescent signal of FRET: cleavage of substrate by B. anthracis-derived enzyme” value in test [10] and in test [11] was “specifically cleaved” each time. For the same substance, the “Fluorescent signal of FRET: cleavage of substrate by B. globigii” value in test [6] was “not capable of cleaving”. The “FRET signal with purified collagenase (Clostridium sp.)” value with Collagenase Clostridium was “No signal”. On Thermolysin, the “FRET signal with purified thermolysin” value is “No signal”. The “Fluorescent bacteria (fluorescence microscopy)” value with B. cereus cells (0 hr) is reported as “no fluorescent bacteria could be detected”. Further, the “Location of fluorescent BikKam1 fragments (fluorescence microscopy)” value in the test with B. cereus cells (B. cereus, 2 hr incubation) is reported as “could be detected in the cytoplasm”; in the test on B. cereus cells (B. cereus, 4 hr), “besides in the cytoplasm also present in the cell wall at the new division sides”; in the test on B. cereus cells (B. cereus, 16 hr incubation), “moved from the cytoplasm to the side walls”. The “Fluorescent BikKam1 fragments in bacteria (fluorescence microscopy)” value in the test on B. cereus cells (B. cereus, time not stated) was “Detection of fluorescent BikKam1 fragments in the cytoplasm”.

The values above are taken from US8852883B2 (priority 2008, dated 2014).
